Test results taken from patent publication US8501770B2 (ArQule, Inc., priority 2009, dated 2013).

What was measured:
[1] = molecular target: Full-length inactive AKT1 (Homo sapiens, UniProt P31749); test: Inactive Akt Alpha Screen Assay; type: biochemical; conditions: values not marked with "*"; read-out: Akt1 IC50, (AlphaScreen)
How it was run: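 AlphaScreen read-out (excitation 640 nm, emission 570 nm) after 90 min incubation at room temperature in the dark. Signal comes from crosstide phosphorylation by AKT1, which was activated by added PDK1, MAPKAPK2, ATP and lipid vesicles, captured via phospho-AKT substrate antibody and streptavidin beads.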

BT474 = test: MTS Assay, cell proliferation, BT474; type: cell-based; conditions: Homo sapiens, BT-474, read-out: Average of [CELL], IC50, MTS (72 hours; 10 Percent; FBS) BT474
Experimental: (§1) Cell proliferation analysis. Cell survival was determined by the MTS assay. Briefly, cells were plated in a 96-well plate at 2,000-10,000 cells per well, cultured for 24 hours in complete growth medium, and then treated with various drugs and drug combinations for 72 hours. MTS was added and incubated for 4 hour, followed by assessment of cell viability using the microplate reader at 570 nm. Data were normalized to untreated controls and analyzed with Microsoft Excel.

LnCap = test: MTS Assay, cell proliferation, LnCap; type: cell-based; conditions: Homo sapiens, read-out: Average of [CELL], IC50, MTS (72 hours; 10 Percent; FBS) LnCap
Experimental: as §1

AN3CA = test: MTS Assay, cell proliferation, AN3CA; type: cell-based; conditions: Homo sapiens, AN3-CA, read-out: Average of [CELL], IC50, MTS (72 hours; 10 Percent; FBS) AN3CA
Experimental: as §1

A2780 = test: MTS Assay, cell proliferation, A2780; type: cell-based; conditions: Homo sapiens, read-out: Average of [CELL], IC50, MTS (72 hours; 10 Percent; FBS) A2780
Experimental: as §1

Zr75-1 = test: MTS Assay, cell proliferation, Zr75-1; type: cell-based; conditions: Homo sapiens, ZR-75-1, read-out: Average of [CELL], IC50, MTS (72 hours; 10 Percent; FBS) Zr75-1
Experimental: as §1

IGROV = test: MTS Assay, cell proliferation, IGROV; type: cell-based; conditions: read-out: Average of [CELL], IC50, MTS (72 hours; 10 Percent; FBS) IGROV
Experimental: as §1

Full-length inactive AKT1, sequence (P31749 whole entry): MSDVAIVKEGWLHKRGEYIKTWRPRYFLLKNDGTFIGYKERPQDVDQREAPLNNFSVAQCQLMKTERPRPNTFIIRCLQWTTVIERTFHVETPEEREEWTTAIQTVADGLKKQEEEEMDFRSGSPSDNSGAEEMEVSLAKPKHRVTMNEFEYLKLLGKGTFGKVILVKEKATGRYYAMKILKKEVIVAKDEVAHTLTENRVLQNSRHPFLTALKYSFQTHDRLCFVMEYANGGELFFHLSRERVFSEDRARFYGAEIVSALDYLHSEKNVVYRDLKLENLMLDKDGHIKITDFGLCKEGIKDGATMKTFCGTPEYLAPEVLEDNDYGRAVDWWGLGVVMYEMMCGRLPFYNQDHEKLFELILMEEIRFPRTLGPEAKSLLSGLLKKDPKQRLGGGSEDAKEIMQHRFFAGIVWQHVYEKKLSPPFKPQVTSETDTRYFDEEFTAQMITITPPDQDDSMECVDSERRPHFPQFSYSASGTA

| Structure (SMILES) | IC50 [1] [nM] | IC50 (BT474) [nM] | IC50 (LnCap) [nM] | IC50 (AN3CA) [nM] | IC50 (A2780) [nM] | IC50 (Zr75-1) [nM] | IC50 (IGROV) [nM] |
| --- | --- | --- | --- | --- | --- | --- | --- |
| Nc1ncccc1-c1nc2ccc(-c3cccc(CO)c3)nc2n1-c1ccc(CNC(=O)c2cccc(F)c2)cc1 [Example 308, N-(4-(2-(2-aminopyridin-3-yl)-5-(3-(hydroxymethyl)phenyl)-3H-imidazo[4,5-b]pyridin-3-yl)benzyl)-3-fluorobenzamide] | 21 | 1800 | 2600 | 2500 | 2300 | 4300 |  |
| CC(=O)Nc1cccc(-c2ccc3nc(-c4cccnc4N)n(-c4ccc(CNS(=O)(=O)c5ccccc5)cc4)c3n2)c1 [Example 324, N-(3-(2-(2-aminopyridin-3-yl)-3-(4-(phenylsulfonamidomethyl)phenyl)-3H-imidazo[4,5-b]pyridin-5-yl)phenyl)acetamide] | 14 | 2500 | 4200 | 5000 | 6300 | 3600 |  |
| Nc1ncccc1-c1nc2ccc(-c3ccccc3)nc2n1-c1ccc(C2(N)CCC2)cc1 [Example 351, 3-(3-(4-(1-aminocyclobutyl)phenyl)-5-phenyl-3H-imidazo[4,5-b]pyridin-2-yl)pyridin-2-amine] |  | 1300 | 2100 | 620 | 720 | 4200 | 1700 |
